From patent publication US20180021270A1, “METHODS FOR THE TREATMENT OF CANCER USING COENZYME Q10 IN COMBINATION WITH IMMUNE CHECKPOINT MODULATORS” (Berg LLC, priority 2016, published 2018)
pIC50: −log10 of the molar value.

Key:
[1] = test system: tumor infiltrating lymphocytes (TILs) in murine Pan02 pancreatic tumors; assay: CD8 IHC pathological scoring of tumor infiltrating lymphocytes in Pan02 tumors; format: in vivo, mouse
Protocol: Tumor samples from mice with murine Pan02 tumors treated with different doses of Coenzyme Q10 were analyzed for the presence of tumor infiltrating lymphocytes (TILs). C57B1/6 female mice were inoculated with 3×10^7 Pan02 cells. When tumors reached a mean volume of 100 mm^3, animals were randomized into four groups and treated with vehicle control or Coenzyme Q10 (25, 50 or 100 mg/kg) twice daily for 21 days. At the end of the study, tumors were removed and subjected to IHC analysis for Tumor Infiltrating Lymphocytes (TILs) with CD8 staining. All slides were subjected to a pathological scoring. […] As shown in FIGS. 29A and 29B, Coenzyme Q10 increased TILs in a dose-dependent manner.

[2] = test system: PD-1 on CD3 positive T cells within Balb/c PBMCs; assay: PD-1 surface expression on murine CD3 positive T cells; format: cell-based, mouse; conditions: 0-800 μM, 24 hours, mean fluorescence intensity
Protocol: PD-1 surface expression on CD3 positive T cells within PHA stimulated or unstimulated Balb/c PBMCs was also evaluated. Cells were treated with Coenzyme Q10 (0, 12.5, 50, 200, 400 or 800 μM) for 24 hours and PD-1 expression was determined by gating live CD3 positive T cells. Mean fluorescence intensity values were evaluated in histogram plots for PD-1. Two experiments using two different pools of Balb/c PBMCs and one experiment using C57B1/6 PBMCs were conducted.

[3] = test system: murine Pan02 pancreatic cancer cells; assay: Pan02 pancreatic tumor growth in C57BL/6 mice; format: in vivo, mouse; conditions: Day 21
Protocol: C57BL/6 mice were implanted with murine Pan02 pancreatic cancer cells and treated with different doses of Coenzyme Q10 to evaluate the effects of Coenzyme Q10 on tumor growth. C57B1/6 female mice were inoculated with 3×10^7 Pan02 cells. When tumors reached a mean volume of 100 mm^3, animals were randomized into four groups and treated with vehicle control or Coenzyme Q10 (25, 50 or 100 mg/kg) by intraperitoneal (i.p.) injection twice daily for 21 days. Tumor volume was measured twice per week.

[4] = Body weight of C57BL/6 mice with Pan02 tumors; format: in vivo, mouse; conditions: 25, 50 or 100 mg/kg i.p. twice per day for 21 days
Protocol: The body weight of C57BL/6 mice implanted with murine Pan02 pancreatic cancer cells and treated with Coenzyme Q10 was also evaluated. Tumors with mean volume of 100 mm^3 were treated twice per day with vehicle control or Coenzyme Q10 at 25, 50 or 100 mg/kg administered intraperitoneally for 21 days. Body weight was measured every two days for the first 5 days, and then twice per week.

[5] = test system: colon (HT29) cancer cells; assay: mRNA expression of PD1, PD-L1 and PD-L2 in cancer cells treated with Coenzyme Q10; format: cell-based, human; conditions: 50 μM Coenzyme Q10, relative to untreated cells (p<0.05; n=3)
Protocol: Levels of mRNA expression of the immune checkpoints PD1, PD-L1 and PD-L2 were determined in human breast (MDA-MB231), prostate (LnCAP), ovarian (SKOV-3), colon (HT29), lung (A549), liver (Huh-7), and pancreatic (MIA PaCa-2) cancer cells treated with 50 μM Coenzyme Q10, 100 μM Coenzyme Q10, or the IC50 of Coenzyme Q10 for each cell line.

[6] = test system: EMT6/P mammary gland adenocarcinoma cells; assay: Cell viability (CellTiter-Fluor) of mouse syngeneic tumor cell line; format: cell-based; conditions: 72 hours, 37° C.
Protocol: (§1) The sensitivity of mouse syngeneic tumor cell lines to Coenzyme Q10 was evaluated in vitro. Six mouse syngeneic tumor cell lines from different tissue types were exposed to increasing concentrations of Coenzyme Q10 (0-25 mM) at 37° C. for 72 hours. Cell viability was measured using CellTiter-Fluor kit (Promega, Madison, Wis.). Graphs and IC50 values were calculated using GraphPad Prism using data for at least three independent experiments. Mouse syngeneic tumor cell lines evaluated were Lewis lung carcinoma (LL2), hepatoma (Hepa1-6) skin melanoma (B16F10), colon cancer (CT26), mammary gland adenocarcinoma (EMT6/P), and renal adenocarcinoma (Renca). As shown in FIGS. 24A-24F, Coenzyme Q10 reduced viability of all of the tumor cell lines in a dose dependent manner.

Hepa1-6 hepatoma cells = assay: as above; format: cell-based; conditions: Hepa1-6, 72 hours, 37° C.
Protocol: as §1

[7] = test system: LL/2 Lewis lung carcinoma cells; assay: as above; format: cell-based; conditions: LL/2, 72 hours, 37° C.
Protocol: as §1

CT26 colon cancer cells = assay: as above; format: cell-based; conditions: CT26, 72 hours, 37° C.
Protocol: as §1

[8] = test system: Renca renal adenocarcinoma cells; assay: as above; format: cell-based; conditions: 72 hours, 37° C.
Protocol: as §1

[9] = test system: B16F10 skin melanoma cells; assay: as above; format: cell-based; conditions: B16F10, 72 hours, 37° C.
Protocol: as §1

CTLA-4 = assay: Inhibitory receptor surface expression on T cells within PBMCs; format: cell-based, human; conditions: PHA-stimulated T cells, 24 hours, dose dependent
Protocol: (§2) Expression of the inhibitory receptor proteins PD-1 and CTLA-4 on the surface of T cells within PBMCs was also determined. The cells were treated with Coenzyme Q10 for 24 hours. Expression of immune checkpoint receptors was measured by staining cells with phenotypic markers for CD3/CD8, or CD3/CD4 in combination with antibodies against PD-1 or CTLA-4. Live cells were identified as 7 AAD negative lymphocytes followed by T cell phenotype characterization of total CD3+ T cells, cytotoxic T cells, or helper T cells. PD-1 or CTLA-4 cell surface expression was measured as mean fluorescence intensity on live T cells. Cells from three donors were tested. As shown in FIGS. 20A and 20B, Coenzyme Q10 decreased PD-1 and CTLA-4 expression on the surface of PHA-stimulated T cells in a dose dependent manner.

PD-1 = assay: as above; format: cell-based, human; conditions: PHA-stimulated T cells, 24 hours, dose dependent
Protocol: as §2

[10] = 25 mg/kg twice daily for 21 days
[11] = 50 mg/kg twice daily for 21 days
[12] = 100 mg/kg twice daily for 21 days

pIC50 [6]: 2.66
pIC50 (Hepa1-6 hepatoma cells): 3.04
pIC50 [7]: 3.62
pIC50 (CT26 colon cancer cells): 2.72
pIC50 [8]: 2.43
pIC50 [9]: 2.87
Compound: COC1=C(OC)C(=O)C(C/C=C(\C)CC/C=C(\C)CC/C=C(\C)CC/C=C(\C)CC/C=C(\C)CC/C=C(\C)CC/C=C(\C)CC/C=C(\C)CC/C=C(\C)CCC=C(C)C)=C(C)C1=O [Coenzyme Q10]
Percentage of mice with TIL levels Higher than Control [1, 10]: 40%
Percentage of mice with TIL levels Lower than Control [1, 10]: 10%
Percentage of mice with TIL levels Similar to Control [1, 10]: 50%
Percentage of mice with TIL levels Higher than Control [1, 11]: 42.9%
Percentage of mice with TIL levels Lower than Control [1, 11]: 28.6%
Percentage of mice with TIL levels Similar to Control [1, 11]: 28.6%
Percentage of mice with TIL levels Higher than Control [1, 12]: 55.2%
Percentage of mice with TIL levels Lower than Control [1, 12]: 33.3%
Percentage of mice with TIL levels Similar to Control [1, 12]: 11.1%
Tumor infiltrating lymphocytes (TILs) in tumors ([1]; 25, 50 or 100 mg/kg twice daily for 21 days, dose-dependent): increased
PD-1 expression of PD-1 negative gated CD3+ T cells [2]: does not affect
PD-1 levels on PD-1 high expressing gated CD3+ T cells [2]: increased
Percentage of Tumor Growth Inhibition ([3]; 25 mg/kg i.p. twice daily, p=0.2583 to control): 7%
Percentage of Tumor Growth Inhibition ([3]; 50 mg/kg i.p. twice daily, p=0.1255 to control): 19%
Percentage of Tumor Growth Inhibition ([3]; 100 mg/kg i.p. twice daily, p=0.0529 to control): 26%
Effect on body weight [4]: no significant effect
PD-L1 mRNA expression [5]: significant increase
CTLA-4 expression on the surface of T cells (mean fluorescence intensity) (CTLA-4): decreased
PD-1 expression on the surface of T cells (mean fluorescence intensity) (PD-1): decreased
